Test results reported in paper PMC7347136 (PLoS ONE, 2020).
“And” between values parts separate entries of the source, which are not always exact repeats. Identical values can stand only once. Like-named read-outs stand apart in the source and are kept apart here.

Legend:
CLK1 = target: T1, CLK1 (Homo sapiens, UniProt P49759); experiment: Carna IC50 determination; assay type: biochemical; settings: around Km [ATP]
T1 construct: purchased Carna Biosciences
Description: (§1) IC50 values were determined from a 10-point concentration curve using ATP concentrations approximating Km values. […] The percentage inhibition of each test solution was calculated, which allowed the IC50 value to be determined from concentration versus percentage inhibition curves by fitting to a four parameter logistic curve.

CDK4/cyclin D3 = target: T2, CDK4/cyclin D3 (Homo sapiens, UniProt P11802); experiment: Carna IC50 determination; assay type: biochemical; settings: around Km [ATP]
T2 construct: made in house
T2 sequence (P11802 whole entry): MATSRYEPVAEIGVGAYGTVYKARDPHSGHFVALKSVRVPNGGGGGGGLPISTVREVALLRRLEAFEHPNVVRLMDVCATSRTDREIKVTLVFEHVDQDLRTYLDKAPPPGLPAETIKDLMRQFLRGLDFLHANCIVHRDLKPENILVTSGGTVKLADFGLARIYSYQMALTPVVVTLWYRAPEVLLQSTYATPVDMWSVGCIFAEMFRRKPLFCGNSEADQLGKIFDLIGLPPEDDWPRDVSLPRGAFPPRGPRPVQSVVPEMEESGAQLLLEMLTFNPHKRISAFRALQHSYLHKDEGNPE
T2 sequence (P30281 whole entry partner): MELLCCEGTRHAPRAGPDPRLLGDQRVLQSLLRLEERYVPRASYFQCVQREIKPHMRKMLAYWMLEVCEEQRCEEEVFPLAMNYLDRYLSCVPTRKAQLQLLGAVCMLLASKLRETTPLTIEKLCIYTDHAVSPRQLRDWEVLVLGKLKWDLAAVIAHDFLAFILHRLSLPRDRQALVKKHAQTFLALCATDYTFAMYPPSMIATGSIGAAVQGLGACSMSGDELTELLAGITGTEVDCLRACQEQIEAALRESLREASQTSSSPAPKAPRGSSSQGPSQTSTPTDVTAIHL
Description: as §1

CDK5/p25 = target: T3, CDK5/p25 (Homo sapiens, UniProt Q00535); experiment: Carna IC50 determination; assay type: biochemical; settings: around Km [ATP]
T3 construct: purchased Carna Biosciences
T3 sequence (Q00535 whole entry): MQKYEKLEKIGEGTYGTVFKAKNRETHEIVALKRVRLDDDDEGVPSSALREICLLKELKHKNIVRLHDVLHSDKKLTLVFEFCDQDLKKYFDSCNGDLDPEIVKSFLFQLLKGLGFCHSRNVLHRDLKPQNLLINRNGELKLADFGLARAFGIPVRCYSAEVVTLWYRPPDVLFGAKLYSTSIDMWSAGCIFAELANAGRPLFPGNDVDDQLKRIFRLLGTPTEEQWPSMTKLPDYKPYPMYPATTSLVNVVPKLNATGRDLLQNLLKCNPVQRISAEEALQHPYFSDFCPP
T3 sequence (Q15078 99-307 partner limits assumed): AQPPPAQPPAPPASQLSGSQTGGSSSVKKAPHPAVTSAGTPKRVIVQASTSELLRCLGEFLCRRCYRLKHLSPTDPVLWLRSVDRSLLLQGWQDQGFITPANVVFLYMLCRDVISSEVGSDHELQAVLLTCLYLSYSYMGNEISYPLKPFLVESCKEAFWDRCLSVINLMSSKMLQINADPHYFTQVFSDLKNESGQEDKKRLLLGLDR
Description: as §1

CDK2/cyclin A = target: T4, CDK2/cyclin A (Homo sapiens, UniProt P24941); experiment: Carna IC50 determination; assay type: biochemical; settings: around Km [ATP]
T4 construct: purchased Carna Biosciences
Description: as §1

CDK3/cyclin E1 = target: T5, CDK3/cyclin E1 (Homo sapiens, UniProt Q00526); experiment: Carna IC50 determination; assay type: biochemical; settings: around Km [ATP]
T5 construct: purchased Carna Biosciences
T5 sequence (Q00526 whole entry): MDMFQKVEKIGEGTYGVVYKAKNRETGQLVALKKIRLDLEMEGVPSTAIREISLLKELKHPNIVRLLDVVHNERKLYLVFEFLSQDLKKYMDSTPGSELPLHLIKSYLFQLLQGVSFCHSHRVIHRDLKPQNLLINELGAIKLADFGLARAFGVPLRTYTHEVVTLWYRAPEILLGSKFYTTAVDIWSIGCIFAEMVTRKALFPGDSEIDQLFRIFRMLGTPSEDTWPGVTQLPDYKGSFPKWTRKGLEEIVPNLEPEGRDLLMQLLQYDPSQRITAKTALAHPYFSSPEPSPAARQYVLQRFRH
T5 sequence (P24864 whole entry partner): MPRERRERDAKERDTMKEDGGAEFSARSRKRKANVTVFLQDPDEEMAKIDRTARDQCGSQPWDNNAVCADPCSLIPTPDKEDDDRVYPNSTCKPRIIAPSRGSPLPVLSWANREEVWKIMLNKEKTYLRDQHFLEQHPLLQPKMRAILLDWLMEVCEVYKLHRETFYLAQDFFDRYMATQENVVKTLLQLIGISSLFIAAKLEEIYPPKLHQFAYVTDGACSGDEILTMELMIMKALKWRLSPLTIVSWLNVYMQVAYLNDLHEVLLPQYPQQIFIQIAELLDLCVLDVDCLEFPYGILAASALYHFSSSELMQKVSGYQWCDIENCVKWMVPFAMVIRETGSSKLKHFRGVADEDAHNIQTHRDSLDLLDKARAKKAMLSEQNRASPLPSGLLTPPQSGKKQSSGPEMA
Description: as §1

CLK2 = target: T6, CLK2 (Homo sapiens, UniProt P49760); experiment: Carna IC50 determination; assay type: biochemical; settings: around Km [ATP]
T6 construct: purchased Carna Biosciences
T6 sequence (P49760 whole entry): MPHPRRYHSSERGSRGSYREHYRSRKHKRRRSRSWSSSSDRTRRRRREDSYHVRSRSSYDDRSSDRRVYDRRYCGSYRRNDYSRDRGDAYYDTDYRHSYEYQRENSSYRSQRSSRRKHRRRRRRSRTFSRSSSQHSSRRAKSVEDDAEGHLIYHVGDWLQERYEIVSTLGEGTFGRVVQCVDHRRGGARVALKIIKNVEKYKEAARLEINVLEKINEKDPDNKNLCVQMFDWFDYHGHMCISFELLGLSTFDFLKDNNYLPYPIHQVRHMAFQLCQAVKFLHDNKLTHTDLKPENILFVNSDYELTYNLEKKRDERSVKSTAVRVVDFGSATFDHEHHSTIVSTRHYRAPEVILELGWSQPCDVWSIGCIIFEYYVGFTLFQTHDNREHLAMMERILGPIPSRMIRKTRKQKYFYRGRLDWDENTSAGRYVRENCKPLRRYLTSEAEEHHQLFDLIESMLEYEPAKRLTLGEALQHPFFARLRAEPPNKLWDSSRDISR
Description: as §1

HEL = experiment: Resazurin reduction cell viability assay; assay type: cell-based, human
Description: (§2) Solid tumor cell lines were seeded in 100 μl medium into 96-well plates at an appropriate cell number determined by a cell dilution assay (Cal51–2000 cells/well; Colo205, MCF10A and 184A1–3000 cells/well and MDA-MB-468, HCC1954–4000 cells/well). AML suspension cells were seeded in 96-well plates at approximately 3000 cells per well. Cells were incubated overnight at 37°C, 5% CO2. The following day, 100 μl fresh medium containing increasing concentrations of appropriate compound was added and the cells were incubated for up to 72 h at 37°C, 5% CO2. For pulse treatment of solid (adherent) tumor cell lines, medium was aspirated and replaced with fresh drug-free medium. For pulse treatment of suspension lines, plates were centrifuged at 478 xg for 5 min at the end of the incubation period with compound, medium containing compound was carefully aspirated and replaced with fresh compound-free medium. A total of 72 h after the start of treatment, 20 μl of a 10X stock of resazurin sodium salt (Sigma-Aldrich, Dorset, UK) prepared in medium was added to the cells and incubated for up to 3 h. […] was measured on the Wallac Victor plate reader (Cambridge, UK) at 544–595 nm. IC50/70/90 calculations were determined in XLFit.

THP-1 = experiment: Resazurin reduction cell viability assay; assay type: cell-based, human
Description: as §2

A2780 = experiment: Resazurin reduction cell viability assay; assay type: cell-based, human; settings: 6 h pulse
Description: as §2

MOLM-13 = experiment: Resazurin reduction cell viability assay; assay type: cell-based, human
Description: as §2

A549 = experiment: Resazurin reduction cell viability assay; assay type: cell-based, human
Description: as §2

MCF10A = experiment: Resazurin reduction cell viability assay; assay type: cell-based, human
Description: as §2

OCI-AML5 = experiment: Resazurin reduction cell viability assay; assay type: cell-based, human
Description: as §2

MDA-MB-231 = experiment: Resazurin reduction cell viability assay; assay type: cell-based, human
Description: as §2

184A1 = experiment: Resazurin reduction cell viability assay; assay type: cell-based, human
Description: as §2

PC3 = experiment: Resazurin reduction cell viability assay; assay type: cell-based, human
Description: as §2

MV4-11 = experiment: Resazurin reduction cell viability assay; assay type: cell-based, human
Description: as §2

[1] = test system: subcutaneous EOL-1 tumors; experiment: EOL-1 human eosinophilic leukemia xenograft model; assay type: in vivo, SCID mice; settings: for tumor growth inhibition (TGI): Day 19; for median TGI: day 9
Description: Female athymic CB-17 SCID (Harlan Sprague-Dawley) mice between 6–7 weeks of age weighing approximately 22 grams were housed in a 12-h light-dark cycle at 70–74°F (21–23°C) and 40–60% humidity. Animals were fed water ad libitum (reverse osmosis, 2 ppm Cl2) and an irradiated standard rodent diet (Teklad 2919) consisting of 19% protein, 9% fat, and 4% fiber. Mice were injected subcutaneously into the right flank with 1x10^7 EOL-1 cells in 100 μl of a 1:1 HBSS:Matrigel solution. When tumors reached approximately 125–250 mm^3, animals were matched by tumor volume and then randomized into treatment and control groups before dosing was initiated. […] Cytarabine, also known as cytosine arabinoside (AraC), was administered by daily ip injection for 5 days only. Agent toxicity was assessed by effects on body weight and clinical signs. Animals were weighed twice weekly using a digital scale (Ohaus SP601). Beginning on Day 0, tumor dimensions were measured twice weekly by digital caliper (Fowler Ultra-Cal IV); tumor volume was calculated using the formula TV = width^2 x length x 0.52. […] Statistical differences in tumor volume were determined using a two-tailed One-Way Analysis of Variance (ANOVA) followed by the Dunnett’s multiple comparisons test comparing treated groups with control. For animal welfare the following methods were used: (a) methods of sacrifice: isoflurane anesthesia followed by cervical dislocation; (b) methods of anesthesia and/or analgesia: isoflurane anesthesia and (c) efforts to alleviate suffering: carprofen if animal veterinarian decides necessary or euthanasia.

[2] = 40 mg/kg oral qd x 5 for 2 weeks
[3] = 55 mg/kg oral qd x 5 for 2 weeks

T1 sequence (P49759 whole entry): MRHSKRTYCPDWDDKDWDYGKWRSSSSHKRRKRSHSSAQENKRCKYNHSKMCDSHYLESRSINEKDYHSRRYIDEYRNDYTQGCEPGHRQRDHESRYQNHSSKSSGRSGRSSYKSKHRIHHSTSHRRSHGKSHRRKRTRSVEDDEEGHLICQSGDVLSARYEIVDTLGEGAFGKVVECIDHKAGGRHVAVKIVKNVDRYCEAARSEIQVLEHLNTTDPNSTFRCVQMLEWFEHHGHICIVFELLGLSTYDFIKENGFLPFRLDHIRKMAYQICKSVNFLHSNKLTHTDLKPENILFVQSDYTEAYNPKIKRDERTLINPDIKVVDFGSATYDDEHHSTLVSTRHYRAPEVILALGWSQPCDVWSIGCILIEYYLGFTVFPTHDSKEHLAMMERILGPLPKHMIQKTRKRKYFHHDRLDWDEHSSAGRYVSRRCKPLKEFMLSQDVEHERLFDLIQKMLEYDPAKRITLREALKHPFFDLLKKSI

Work on `CC[C@H](Nc1nc(NCc2cnc(C)cc2C)c2ncn(C(C)C)c2n1)[C@@H](C)O` [Fadraciclib, 2-pentanol, 3-[[6-[[(4,6-dimethyl-3-pyridinyl)methyl]amino]-9-(1-methylethyl)-9Hpurin-2-yl]amino]-, (2R,3S)] yielded an IC50 (CLK1) of 549 ± 81 nM, an IC50 (CDK4/cyclin D3) of 232 ± 27 nM and an IC50 (CDK5/p25) of 20.5 ± 1 nM. The IC50 (CDK2/cyclin A) was 4.5 ± 0.4 nM, the IC50 (CDK3/cyclin E1) was 29 nM and 28.9 nM and the IC50 (CLK2) was 252 ± 8 nM. For the same compound, the IC50 (HEL; Homo sapiens, 72 h, 72 h continuous, read-out: 72 h continuous IC50 ± SD) was 530 ± 200 nM, the IC50 (HEL; Homo sapiens, read-out: 6 h pulse IC50 ± SD, HEL, 6 h pulse then 66 h release) was 5120 nM and the IC50 (HEL; read-out: 6 h pulse IC50 ± SD, 6 h pulse then 66 h release) was 5110 ± 880 nM. It also gave an IC50 (THP-1; Homo sapiens, THP-1, 72 h, THP-1, 72 h continuous, read-out: 72 h continuous IC50 ± SD) of 570 ± 180 nM, an IC50 (THP-1; Homo sapiens, THP-1, 72 h, THP-1, value the 7 x 7 combination matrix spans, 72 h, read-out: IC50 value of each compound (single agent)) of 430 nM and an IC50 (THP-1; Homo sapiens, THP-1, read-out: 6 h pulse IC50 ± SD, THP-1, 6 h pulse then 66 h release) of 1100 nM. The IC90 (THP-1; Homo sapiens, THP-1, 6 h pulse then 66 h release) was 6800 nM, the IC50 (THP-1; read-out: 6 h pulse IC50 ± SD, THP-1, 6 h pulse then 66 h release) was 1080 ± 230 nM and the “IC50, short pulse” value (A2780) was “submicromolar”. It also gave an IC50 (MOLM-13; Homo sapiens, MOLM-13, 72 h, MOLM-13, 72 h continuous, read-out: 72 h continuous IC50 ± SD) of 240 ± 50 nM, an IC50 (MOLM-13; Homo sapiens, MOLM-13, read-out: 6 h pulse IC50 ± SD, MOLM-13, 6 h pulse then 66 h release) of 260 nM and an IC90 (MOLM-13; Homo sapiens, MOLM-13, 6 h pulse then 66 h release) of 400 nM. For the same compound, the IC50 (MOLM-13; read-out: 6 h pulse IC50 ± SD, MOLM-13, 6 h pulse then 66 h release) was 250 ± 50 nM, the “sensitivity, 6 h pulse versus continuous 72 h” value (A549) was “sensitive to fadraciclib only after more prolonged treatment” and the IC50 (MCF10A; Homo sapiens, MCF-10A, 72 h, MCF10A, continuous 72 h, read-out: continuous IC50 ± SD) was 400 ± 30 nM. The IC50 (MCF10A; Homo sapiens, MCF-10A, read-out: 8 h pulse IC50 ± SD, MCF10A (non-malignant), 8 h pulse, read at 72 h) was 3900 nM, the IC50 (MCF10A; read-out: 8 h pulse IC50 ± SD, MCF10A (non-malignant), 8 h pulse, read at 72 h) was 3890 ± 1040 nM and the IC50 (OCI-AML5; Homo sapiens, OCI-AML-5, 72 h, OCI-AML5, 72 h continuous, read-out: 72 h continuous IC50 ± SD) was 310 ± 130 nM. The IC90 (OCI-AML5; Homo sapiens, OCI-AML-5, OCI-AML5, 6 h pulse then 66 h release) was 18500 nM, the IC50 (OCI-AML5; Homo sapiens, OCI-AML-5, read-out: 6 h pulse IC50 ± SD, OCI-AML5, 6 h pulse then 66 h release) was 1440 nM and the IC50 (OCI-AML5; read-out: 6 h pulse IC50 ± SD, OCI-AML5, 6 h pulse then 66 h release) was 1450 ± 50 nM. For the same compound, the “sensitivity, 6 h pulse versus continuous 72 h” value (MDA-MB-231) was “sensitive to fadraciclib only after more prolonged treatment”, the IC50 (184A1; Homo sapiens, 184A1, 72 h, 184A1, continuous 72 h, read-out: continuous IC50 ± SD) was 250 ± 10 nM and the IC50 (184A1; Homo sapiens, 184A1, read-out: 8 h pulse IC50 ± SD, 184A1 (non-malignant), 8 h pulse, read at 72 h) was 3900 nM. The IC50 (184A1; read-out: 8 h pulse IC50 ± SD, 184A1 (non-malignant), 8 h pulse, read at 72 h) was 3870 ± 2100 nM, the “sensitivity, 6 h pulse versus continuous 72 h” value (PC3) was “sensitive to fadraciclib only after more prolonged treatment” and the IC50 (MV4-11; Homo sapiens, MV4-11, 72 h, MV4-11, 72 h continuous, read-out: 72 h continuous IC50 ± SD) was 260 ± 80 nM. The IC50 (MV4-11; Homo sapiens, MV4-11, read-out: 6 h pulse IC50 ± SD, MV4-11, 6 h pulse then 66 h release) was 500 nM, the IC90 (MV4-11; Homo sapiens, MV4-11, 6 h pulse then 66 h release) was 920 nM and the IC50 (MV4-11; read-out: 6 h pulse IC50 ± SD, MV4-11, 6 h pulse then 66 h release) was 510 ± 40 nM. The “tumor growth inhibition (TGI)” value [1, 2] was 97%, the “median TGI” value [1, 2] was 95% and the “transient body weight loss” value ([1]; 55 mg/kg oral) was 2%. The “tumor growth inhibition (TGI)” value [1, 3] was 100% and the “median TGI” value [1, 3] was 97%.
